Measurements as given in patent US6380164B1, “Method for treating cytokine mediated hepatic injury” (University of Kentucky Research Foundation, priority 1999, dated 2002).

System: Male BALB/c HSD mice
Assay: Survival of mice rendered hepatotoxic by LPS/GAL treatment (hepatic failure / septic shock model)
Assay type: in vivo
Conditions: for survival time compared to mice receiving LPS/GAL only: mice made septic by LPS/GAL treatment, 4 mg/kg intraperitoneal x5, result in words; for SURVIVAL 15 Hours (number of surviving mice) / SURVIVAL 15 Hours (percent of mice) / SURVIVAL 20 Hours (number of surviving mice) / SURVIVAL 20 Hours (percent of mice) / SURVIVAL 40 Hours (number of surviving mice) / SURVIVAL 40 Hours (percent of mice) / SURVIVAL 65 Hours (number of surviving mice) / SURVIVAL 65 Hours (percent of mice): n=15 mice, 4 mg/kg intraperitoneal at 0 h, 2 h, 4 h, 6 h and 7.5 h, LPS/GAL at 6.5 h; for SURVIVAL 15 Hours (number of surviving mice) / SURVIVAL 15 Hours (percent of mice): 15 h after the last injection; for SURVIVAL 20 Hours (number of surviving mice) / SURVIVAL 20 Hours (percent of mice): 20 h after the last injection; for SURVIVAL 40 Hours (number of surviving mice) / SURVIVAL 40 Hours (percent of mice): 40 h after the last injection; for SURVIVAL 65 Hours (number of surviving mice) / SURVIVAL 65 Hours (percent of mice): 65 h after the last injection
Description: Hepatic failure was induced in mice by intraperitoneal injections of a mixture of lipopolysaccharide (LPS) ([…]) and D-galactosamine (GAL) (700 mg/kg) to form LPS/GAL. LPS is a bacterial endotoxin that is a major stimulus for production of many cytokines, particularly tumor necrosis factor (TNF), thought to be involved in liver injury. GAL is an amino sugar that sensitizes hepatocytes by depleting the base uridine and thus preventing hepatic transcription, and sensitizes animals to normally innocuous amounts of endotoxin or TNF. The LPS/GAL treatment induces fulminate hepatic and multiorgan failure, and serves as a model for septic shock. The major effects of LPS/GAL are elicited by the inflammatory cytokine TNF-α. Hepatocytes sensitized to TNF-α then undergo apoptosis or programmed cell death in response to inflammatory processes.
Mice were treated with deltorphin and were subsequently rendered hepatotoxic by LPS/GAL treatment. An emulsion of deltorphin I SEQ ID NO:1 (Tyr-D-Ala-Phe-Asp-Val-Val-Gly-NH2) was prepared at a concentration of 80 μg/200 μl in sterile phosphate buffered saline (PBS). An emulsion of DADLE (Tyr-D-Ala-Gly-Phe-D-Leu-enkephalin) was also prepared at a concentration of 80 μg/200 μl in sterile PBS. Male BALB/c HSD mice were treated by intraperitoneal injections according to the following protocol. Control mice (n=7) received only LPS/GAL (280 μl) at 6.5 h. Deltorphin I SEQ ID NO:1 treated mice (n=15) received injections of 4 mg/kg deltorphin I SEQ ID NO:1 at 0 h, 2 h, 4 h, 6 h and 7.5 h and received an LPS/GAL injection at 6.5 h. DADLE treated mice (n 15) received 4 mg/kg DADLE at 0 h, 2 h, 4 h, 6 h and 7.5 h and received an LPS/GAL injection at 6.5 h.
Both control and treated mice were monitored at 15 h, 20 h, 40 h and 65 h after the last injection.

CC(C)C[C@@H](NC(=O)[C@H](Cc1ccccc1)NC(=O)CNC(=O)[C@@H](C)NC(=O)[C@@H](N)Cc1ccc(O)cc1)C(=O)O [DADLE, Tyr-D-Ala-Gly-Phe-D-Leu-enkephalin]
survival time compared to mice receiving LPS/GAL only: not as striking at any time point
SURVIVAL 15 Hours (number of surviving mice): 3
SURVIVAL 15 Hours (percent of mice): 20%
SURVIVAL 20 Hours (number of surviving mice): 3
SURVIVAL 20 Hours (percent of mice): 20%
SURVIVAL 40 Hours (number of surviving mice): 3
SURVIVAL 40 Hours (percent of mice): 20%
SURVIVAL 65 Hours (number of surviving mice): 3
SURVIVAL 65 Hours (percent of mice): 20%

Tyr-D-Ala-Phe-Asp-Val-Val-Gly-NH2 [deltorphin I SEQ ID NO:1]
survival time compared to mice receiving LPS/GAL only: markedly increased survival time
SURVIVAL 15 Hours (number of surviving mice): 12
SURVIVAL 15 Hours (percent of mice): 80%
SURVIVAL 20 Hours (number of surviving mice): 11
SURVIVAL 20 Hours (percent of mice): 73%
SURVIVAL 40 Hours (number of surviving mice): 11
SURVIVAL 40 Hours (percent of mice): 73%
SURVIVAL 65 Hours (number of surviving mice): 11
SURVIVAL 65 Hours (percent of mice): 73%
